Patent publication US8383683B2, “Pharmaceutical use of substituted amides” (High Point Pharmaceuticals, LLC, priority 2007, dated 2013)

Experiments:
11βHSD1 [1] = target: T1, 11βHSD1 (Homo sapiens, UniProt P28845); assay: 11βHSD1 enzyme assay (SPA, 3H-cortisone to 3H-cortisol); type: biochemical; set-up: An extract of yeast transformed with h-11βHSD1 (Hutt et al., FEBS Lett., 441, 25 (1998)) was used as the source of enzyme; made in house; settings: extract of yeast transformed with h-11βHSD1; 120 nM 3H-cortisone, 4 mM β-NADPH, 60 min at 30° C.
T1 sequence (P28845 whole entry): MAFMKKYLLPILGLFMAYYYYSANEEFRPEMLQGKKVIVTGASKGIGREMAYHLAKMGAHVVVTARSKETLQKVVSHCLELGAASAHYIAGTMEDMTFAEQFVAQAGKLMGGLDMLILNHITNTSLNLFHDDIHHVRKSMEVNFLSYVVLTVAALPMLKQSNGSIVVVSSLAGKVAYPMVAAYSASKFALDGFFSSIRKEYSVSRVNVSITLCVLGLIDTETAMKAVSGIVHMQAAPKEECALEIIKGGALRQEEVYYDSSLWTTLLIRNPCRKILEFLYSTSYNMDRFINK
Protocol: Pharmacological Methods 11βHSD1 Enzyme Assay Materials
^3H-cortisone and anti-rabbit Ig coated scintillation proximity assay (SPA) beads were purchased from Amersham Pharmacia Biotech, β-NADPH was from Sigma and rabbit anti-cortisol antibodies were from Fitzgerald. An extract of yeast transformed with h-11βHSD1 (Hutt et al., FEBS Lett., 441, 25 (1998)) was used as the source of enzyme. The test compounds were dissolved in DMSO (10 mM). All dilutions were performed in a buffer containing 50 mM TRIS-HCl (Sigma Chemical Co), 4 mM EDTA (Sigma Chemical Co), 0.1% BSA (Sigma Chemical Co), 0.01% Tween-20 (Sigma Chemical Co) and 0.005% bacitracin (Novo Nordisk NS), pH=7.4. Optiplate 96 wells plates were supplied by Packard. The amount of ^3H-cortisol bound to the SPA beads was measured on TopCount NXT, Packard.
h-11βHSD1, 120 nM ^3H-cortisone, 4 mM β-NADPH, antibody (1:200), serial dilutions of test compound and SPA particles (2 mg/well) were added to the wells. The reaction was initiated by mixing the different components and was allowed to proceed under shaking for 60 min at 30° C. The reaction was stopped be the addition of 10 fold excess of a stopping buffer containing 500 μM carbenoxolone and 1 μM cortisone. Data was analysed using GraphPad Prism software.

11βHSD1 [2] = target: T1, 11βHSD1; set-up: host or cells: human volunteers and patients (in vivo); settings: lean healthy volunteers and people with type 2 diabetes; cited from earlier work

SMILES | IC50 (11βHSD1 [1]) [nM] | insulin sensitivity (11βHSD1 [2])
CN(C(=O)CCCOc1ccc(Cl)cc1Cl)C1CCC(S(=O)(=O)N(C)C)CC1 (stereo not drawn) [Example 1-70, 4-(2,4-Dichloro-phenoxy)-N-(4-dimethyl-sulfamoyl-cyclohexyl)-N-methyl-butyramide] | 479 | –
CN(C(=O)CCCOc1ccccc1)C1C2CC3CC1CC(O)(C3)C2 (stereo not drawn) [Example 1-43, N-(5-Hydroxy-adamantan-2-yl)-N-methyl-4-phenoxy-butyramide] | 58 | –
O=C(CCCOc1ccc(Cl)cc1Cl)N1CC2CC3CC1CC(C(=O)O)(C3)C2 (stereo not drawn) [Example 1-67, 4-[4-(2,4-Dichloro-phenoxy)-butyryl]-4-aza-tricyclo[4.3.1.1{3,8}]-undecane-1-carboxylic acid] | 25 | –
COC(=O)C12CC3CC(CC(NC(=O)CCCOc4ccccc4)(C3)C1)C2 [Example 1-52, 3-(4-Phenoxy-butyryl-amino)-adamantane-1-carboxylic acid methyl ester] | 54 | –
CN(C(=O)CCCOc1ccc(Cl)cc1Cl)C1C2CC3CC1CC(O)(C3)C2 (stereo not drawn) [Example 1-32, 4-(2,4-Dichloro-phenoxy)-N-(5-hydroxy-adamantan-2-yl)-N-methyl-butyramide] | 4 | –
O=C(CCCOc1ccccc1)N1CC2CCC1C2O (stereo not drawn) [Example 1-48, 1-(7-Hydroxy-2-aza-bicyclo[2.2.1]hept-2-yl)-4-phenoxy-butan-1-one] | 1080 | –
O=C(NC1C2CC3CC1CC(O)(C3)C2)C1(CCOc2ccc(Cl)cc2Cl)CC1 (stereo not drawn) [Example 2-5, 1-[2-(2,4-Dichloro-phen-oxy)-ethyl]-cyclo-pro-panecarboxylic acid (5-hydroxy-adamantan-2-yl)-amide] | 4 | –
O=C(CCCOc1ccccn1)NC1C2CC3CC1CC(O)(C3)C2 (stereo not drawn) [Example 1-87, N-(5-Hydroxy-adamantan-2-yl)-4-(pyridin-2-yloxy)-butyramide] | 227 | –
CCOC(=O)C12CCC(NC(=O)CCCOc3ccc(Cl)cc3Cl)(CC1)CC2 [Example 1-72, 4-[4-(2,4-Dichloro-phenoxy)-butyrylamino]-bicyclo[2.2.2]octane-1-carboxylic acid ethyl ester] | 198 | –
O=C(CCCOc1ccc(Cl)cc1Cl)NC12CCC(CO)(CC1)CC2 [Example 1-73, 4-(2,4-Dichloro-phenoxy)-N-(4-hydroxy-methyl-bicyclo[2.2.2]oct-1-yl)-butyramide] | 1 | –
O=C(CCCOc1ccccc1)N1CC2CC1CC2O (stereo not drawn) [Example 1-46, 1-(5-Hydroxy-2-aza-bicyclo[2.2.1]hept-2-yl)-4-phenoxy-butan-1-one] | 1510 | –
O=C(CCCOc1ccccc1)NC1C2CC3CC1CC(O)(C3)C2 (stereo not drawn) [Example 1-39, N-(5-Hydroxy-adamantan-2-yl)-4-phenoxy-butyramide] | 50 | –
O=C(CCCOc1ccc(Cl)cc1Cl)N1CC2CC3CC1CC(O)(C3)C2 (stereo not drawn) [Example 1-22, 4-(2,4-Dichloro-phenoxy)-1-(1-hydroxy-4-aza-tricyclo-[4.3.1.1{3,8}]undec-4-yl)-butan-1-one] | 6 | –
CC1(C)[C@@H](OC(=O)CCC(=O)O)CC[C@]2(C)[C@H]3C(=O)C=C4[C@@H]5C[C@@](C)(C(=O)O)CC[C@]5(C)CC[C@@]4(C)[C@]3(C)CC[C@@H]12 [carbenoxolone] | – | improves insulin sensitivity
O=C(CCCOc1ccc(Cl)cc1Cl)N1CCCCC1c1ccccc1 (stereo not drawn) [Example 1-10, 4-(2,4-Dichloro-phenoxy)-1-(2-phenyl-piperidin-1-yl)-butan-1-one] | 201 | –
O=C(CCCOc1ccccc1)NC12CC3CC(C1)CC(C(=O)O)(C3)C2 [Example 1-53, 3-(4-Phenoxy-butyryl-amino)-adamantane-1-carboxylic acid] | 194 | –
CC(C)N(C(=O)CCCOc1ccccc1)C1C2CC3CC1CC(O)(C3)C2 (stereo not drawn) [Example 1-49, N-(5-Hydroxy-adamantan-2-yl)-N-isopropyl-4-phenoxy-butyramide] | 141 | –

Now from value to molecule, other results behind:

IC50 (11βHSD1 [1]) [nM] | SMILES | insulin sensitivity (11βHSD1 [2])
185 | O=C(CCCOc1ccc(Cl)cc1Cl)N1CC2CC(O)CC1C2 (stereo not drawn) [Example 1-25, 4-(2,4-Dichloro-phenoxy)-1-(3-hydroxy-6-aza-bicyclo[3.2.1]oct-6-yl)-butan-1-one] | –
2 | CN(C(=O)CCCOc1ccc(Cl)cc1Cl)C1CCC(S(N)(=O)=O)CC1 (stereo not drawn) [Example 1-69, 4-(2,4-Dichloro-phenoxy)-N-methyl-N-(4-sulfamoyl-cyclohexyl)-butyramide] | –
11 | O=C(CCCOc1ccc(Cl)cc1Cl)NC12CC3CC(C1)CC(C(=O)O)(C3)C2 [Example 1-31, 3-[4-(2,4-Dichloro-phenoxy)-butyrylamino]-adamantane-1-carboxylic acid] | –
397 | O=C(CCCOc1ccc(Cl)cc1Cl)N1CC2CCC1CC2O (stereo not drawn) [Example 1-36, 4-(2,4-Dichloro-phenoxy)-1-(5-hydroxy-2-aza-bicyclo[2.2.2]oct-2-yl)-butan-1-one] | –
4 | O=C(CCCOc1ccc(Cl)cc1Cl)NC1C2CC3CC1CC(O)(C3)C2 (stereo not drawn) [Example 1-27, 4-(2,4-Dichloro-phenoxy)-N-(5-hydroxy-adamantan-2-yl)-butyramide] | –
209 | O=C(CCCOc1ccc(Cl)cc1Cl)N(C1CC1)C1C2CC3CC1CC(O)(C3)C2 (stereo not drawn) [Example 1-18, N-Cyclopropyl-4-(2,4-dichloro-phenoxy)-N-(5-hydroxy-adamantan-2-yl)-butyramide] | –
252 | O=C(CCCOc1ccc(Cl)cc1Cl)N1CC2CCC(C1)C2O (stereo not drawn) [Example 1-35, 4-(2,4-Dichloro-phenoxy)-1-(8-hydroxy-3-aza-bicyclo[3.2.1]oct-3-yl)-butan-1-one] | –
1 | O=C(CCCOc1ccc(Cl)cc1Cl)NC12CC3CC(CC(CO)(C3)C1)C2 [Example 1-28, 4-(2,4-Dichloro-phenoxy)-N-(3-hydroxy-methyl-adamantan-1-yl)-butyramide] | –
30 | CN(C(=O)CCCOc1ccc(Cl)cc1Cl)C1CC2CC1CC2CO (stereo not drawn) [Example 1-84] | –
27 | O=C(CCCOc1ccc(Cl)cc1Cl)NC1CCC(CO)CC1 (stereo not drawn) [Example 1-75, 4-(2,4-Dichloro-phenoxy)-N-(4-hydroxy-methyl-cyclohexyl)-butyramide] | –
628 | CN(C(=O)CCCOc1ccc(Cl)cc1Cl)[C@H]1CCCC[C@@H]1O [Example 1-57, 4-(2,4-Dichloro-phenoxy)-N-((1S,2S)-2-hydroxy-cyclohexyl)-N-methyl-butyramide] | –
123 | CN(C(=O)CCCOc1ccc(Cl)cc1Cl)[C@H]1CCCC[C@@H]1CO [Example 1-62, 4-(2,4-Dichloro-phenoxy)-N-((S)-2-hydroxymethyl-cyclo-hexyl)-N-methyl-butyramide] | –
300 | CC(C)(O)C1CCC(NC(=O)CCCOc2ccc(Cl)cc2Cl)CC1 (stereo not drawn) [Example 1-79, 4-(2,4-Dichloro-phenoxy)-N-[4-(1-hydroxy-1-methyl-ethyl)-cyclohexyl]-butyramide] | –
3 | CN(C(=O)CCCOc1ccc(Cl)cc1Cl)C1CCCC(CO)C1 (stereo not drawn) [Example 1-59, 4-(2,4-Dichloro-phenoxy)-N-(3-hydroxy-methyl-cyclo-hexyl)-N-methyl-butyramide] | –
2 | O=C(CCCOc1ccc(Cl)cc1Cl)NC1C2CC3CC1CC(CO)(C3)C2 (stereo not drawn) [Example 1-55, 4-(2,4-Dichloro-phenoxy)-N-(5-hydroxy-methyl-adamantan-2-yl)-butyramide] | –
1 | O=C(CCCOc1ccc(Cl)cc1Cl)NC1C2CC3CC(C2)C(CO)C1C3 (stereo not drawn) [Example 1-21, 4-(2,4-Dichloro-phenoxy)-N-(4-hydroxy-methyl-adamantan-2-yl)-butyramide] | –
13 | O=C(CCCOc1ccc(Cl)cc1Cl)NC12CC3CC(C1)CC(C(=O)O)(C3)C2 [Example 1-20, 3-[4-(2,4-Dichloro-phenoxy)-butyrylamino]-adamantane-1-carboxylic acid] | –
271 | CC1(C)[C@H]2CC[C@@H](CNC(=O)CCCOc3ccc(Cl)cc3Cl)[C@@H]1C2 [Example 1-11, 4-(2,4-Dichloro-phen-oxy)-N-((1S,2R,5S)-6,6-dimethyl-bicyclo[3.1.1]-hept-2-ylmethyl)-butyr-amide] | –
56 | CN(C(=O)CCCOc1ccc(Cl)cc1Cl)C1CCCC(O)C1 (stereo not drawn) [Example 1-61, 4-(2,4-Dichloro-phenoxy)-N-(3-hydroxy-cyclohexyl)-N-methyl-butyramide] | –
151 | O=C(CCCOc1ccc(Cl)cc1Cl)N1CC2CC(O)C1C2 (stereo not drawn) [Example 1-23, 4-(2,4-Dichloro-phenoxy)-1-(6-hydroxy-2-aza-bicyclo[2.2.1]hept-2-yl)-butan-1-one] | –
9 | CC(C)(O)C12CC3CC(C1)C(NC(=O)CCCOc1ccc(Cl)cc1Cl)C(C3)C2 (stereo not drawn) [Example 1-83, 4-(2,4-Dichloro-phenoxy)-N-[5-(1-hydroxy-1-methyl-ethyl)-adamantan-2-yl]-butyramide] | –
14 | O=C(CCCOc1ccc(Cl)cc1Cl)N1CC2CCC1C2O (stereo not drawn) [Example 1-29, 4-(2,4-Dichloro-phenoxy)-1-(7-hydroxy-2-aza-bicyclo[2.2.1]hept-2-yl)-butan-1-one] | –
